According to US6599938B1, “Compounds having MIF antagonist activity” (The Picower Institute of Medical Research, priority 1999, dated 2003):
Values joined by “and” are separate entries in the source; they are usually repeats but may differ in a detail not shown here. Identical values can stand only once. “Also recorded” adds a separate entry of the source. Like-named read-outs stand apart in the source and are kept apart here. Blank lines part the entries; values can stand above or below the compound they belong to.

Columns and labels:
MIF = biological target: T1, MIF (Homo sapiens, UniProt P14174); test: MIF dopachrome tautomerase assay; format: biochemical; details: for IC50: MIF tautomerase activity, L-dopachrome methyl ester substrate; for MIF antagonist activity: D amino acid compounds compared with compounds 8-10
T1 sequence (P14174 2-115 limits assumed): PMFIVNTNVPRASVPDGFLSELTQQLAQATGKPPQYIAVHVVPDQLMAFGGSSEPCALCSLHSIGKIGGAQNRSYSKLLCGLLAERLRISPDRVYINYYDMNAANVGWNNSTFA

[1] = tested on: quiescent NIH/3T3 fibroblasts; test: Inhibition of MIF-dependent serum-induced proliferation of quiescent NIH/3T3 fibroblasts; format: cell-based; details: for MIF inhibitory activity (inhibition of MIF induced proliferation in quiescent NIH/3T3 cell cultures): NIH/3T3 cell proliferation assay
[2] = tested on: primary murine embryonic fibroblasts; test: Neutralization of rMIF rescue from serum-withdrawal apoptosis; format: cell-based; details: serum-free + rMIF 50 ng/ml; for neutralizing MIF-mediated protection from apoptosis (persistence of apoptosis despite rMIF): FIG. 2, test compound 1 or 10 μM, compared with anti-MIF mAb
Excerpt: FIG. 2 compares the activity of MIF antagonist agents of the present invention (and more particularly compounds according to Formula I) to neutralize the MIF-mediated protection from apoptosis induced in cultured murine embryonic fibroblasts, which apoptotic response (cell death) is initiated by withdrawal of serum. In this assay, withdrawal of serum initiates an apoptotic response, but the cells can be rescued by addition of recombinant MIF (rMIF) to the culture medium. […] This antagonistic effect on MIF bioactivity in vitro is predictive of clinical utility of the active MIF antagonist agent.
In the illustrative experiments, cultured embryonic fibroblasts are induced to enter apoptosis (cell death) as a result of serum withdrawal. These cultures can be “rescued” by treatment with MIF. Thus, test compounds are conveniently assayed for MIF antagonist activity by reference to the activity of the compounds to neutralize the effect of added MIF in the apoptosis assay; that is, by the persistence of apoptosis (cell death) in serum-free culture conditions despite the addition of MIF. In this regard, anti-MIF antibodies are known to antagonize MIF and serve as a convenient positive control.
Briefly, primary murine embryonic fibroblasts are distributed into 6-well cell culture plates at 2×10^5 cells/well. Cells are subsequently cultured overnight under standard conditions in 10% serum-containing medium (+serum) or in serum-free medium (+serum-free) in the absence or presence of recombinant human MIF (rMIF) at 50 ng/ml. […] Cell lysates are analyzed for apoptosis by any of a variety of convenient methods, such as ELISA for fragmented DNA. Results shown are the mean+/−SD of duplicate samples and are representative of replicated experiments.

IC50 (MIF; read-out: Inhibition (IC50)): > 100 µM
Structure (SMILES): COC(=O)CN=Cc1ccc(O)cc1 [compound 1]

IC50 (MIF; read-out: Inhibition (IC50)): ~50 µM and 50 µM
Structure (SMILES): COC(=O)[C@H](Cc1ccccc1)N=Cc1ccc(O)cc1 [compound 8, L-PheME/parahydroxybenzaldehyde Schiff base]
MIF inhibitory activity (inhibition of MIF induced proliferation in quiescent NIH/3T3 cell cultures) [1]: Neither compound 8 (corresponding to L-PheME/parahydroxybenzaldehyde Schiff base) nor compound 10b (corresponding to D-TrpME/parahydroxybenzaldehyde Schiff base) exhibited anti-MIF biological activity

Structure (SMILES): COC(=O)[C@@H](Cc1ccccc1)N=Cc1ccc(O)cc1 [compound 8b]
MIF antagonist activity (MIF): significantly less MIF antagonist activity

IC50 (MIF; read-out: Inhibition (IC50)): ~10 µM and 10 µM
Structure (SMILES): COC(=O)[C@H](Cc1ccc(O)cc1)N=Cc1ccc(O)cc1 [compound 9, L-TyrME/parahydroxybenzaldehyde Schiff base]
MIF inhibitory activity (inhibition of MIF induced proliferation in quiescent NIH/3T3 cell cultures) [1]: exhibited MIF inhibitory activity

Structure (SMILES): COC(=O)[C@H](Cc1c[nH]c2ccccc12)N=Cc1ccc(O)cc1 [compound 10]
antagonism of the bioactivity of MIF in apoptosis assay ([2]; 10 μM): significantly antagonizes the bioactivity of MIF | neutralizing MIF-mediated protection from apoptosis (persistence of apoptosis despite rMIF) [2]: as effective an MIF antagonist agent as is a neutralizing anti-MIF monoclonal antibody; also recorded: as effective as a monoclonal anit-MIF antibody treatment at neutralizing rMIF; also recorded: dose-related effect | suppression of serum-induced cell proliferation ([1]; FIG. 1, 10 μM, 10% serum, [3H]-thymidine incorporation, compared with anti-MIF mAb 100 μg/ml): as effective an MIF antagonist as a neutralizing anti-MIF monoclonal antibody | MIF inhibitory activity (inhibition of MIF induced proliferation in quiescent NIH/3T3 cell cultures) [1]: exhibited MIF inhibitory activity

Structure (SMILES): COC(=O)[C@@H](Cc1c[nH]c2ccccc12)N=Cc1ccc(O)cc1 [compound 10b, D-tryptophan/para-hydroxybenzaldehyde Schiff base]
MIF antagonist activity (MIF): significantly less MIF antagonist activity | neutralizing MIF-mediated protection from apoptosis (persistence of apoptosis despite rMIF) [2]: but not compound 10b (D-tryptophan/para-hydroxybenzaldehyde Schiff base), was as effective as a monoclonal anit-MIF antibody treatment at neutralizing rMIF

IC50 (MIF; read-out: Inhibition IC50): > 100 µM
Structure (SMILES): COC(=O)C(Cc1ccc(O)cc1)N=Cc1ccccc1O (centres unmarked) [compound 18]

IC50 (MIF; read-out: Inhibition IC50): > 100 µM
Structure (SMILES): COC(=O)C(Cc1ccc(O)cc1)N=Cc1cccc(O)c1O (centres unmarked) [compound 20]

IC50 (MIF; read-out: Inhibition IC50): > 100 µM
Structure (SMILES): COC(=O)C(Cc1ccc(O)cc1)N=Cc1ccc(O)c(O)c1 (centres unmarked) [compound 21]

IC50 (MIF; read-out: Inhibition IC50): > 100 µM
Structure (SMILES): COC(=O)[C@H](Cc1ccc(O)cc1)N=Cc1ccc(F)cc1 [compound 24]

IC50 (MIF; read-out: Inhibition IC50): > 100 µM
Structure (SMILES): COC(=O)[C@H](Cc1c[nH]c2ccccc12)N=Cc1ccc(F)cc1 [compound 29]
